Data: patent US5407918A, “16-membered macrolide derivatives and process for producing the same” (Meiji Seika Kaisha, Ltd., priority 1992, dated 1995)
≈ marks a conversion by molar mass, not a printed value.

Columns and labels:
test strains = test: antimicrobial activity in vitro, comparison in words; type: cell-based; settings: for antimicrobial activity in vitro compared with MOM: data are not shown; for antimicrobial activity compared with LM-A7: except on Haemophilus influenzae, Tables 2 and 3
Experimental: (§1) Antimicrobial activities of the compounds of the present invention were determined by measuring minimum inhibitory concentration (MIC). Minimum inhibitory concentration was determined by the agar plate dilution method in the following manner.
(§2) Test strains were subjected to seed culture using Sensitivity test broth (STB, Nissui Pharmaceutical) except that the strains belonging to the genus Streptococcus, Branhamella and Haemophilus were cultured on blood agar plate. A 5 μl portion of cell suspension of the test strains having about 10^6 CFU/ml was inoculated into Sensitivity disk agar (SDA, Nissui Pharmaceutical) supplemented with 5% horse blood and incubated at 37° C. for 20 hours. Then, MIC was measured. For comparison, MDM and leucomycin A7 (LM-A7) was also tested.

Gram-positive bacteria = test: antimicrobial activity in vitro (summary in words); type: cell-based; settings: from Tables 2 and 3
Experimental: as §1, §2

H. influenzae Type b = test: MIC, agar plate dilution method; type: cell-based; settings: Haemophilus influenzae; H. influenzae Type b; 37° C., 20 hours; read-out: Antimicrobial activity (MIC)
Experimental: as §1, §2

B. catarrhalis W-0506 = test: MIC, agar plate dilution method; type: cell-based; settings: Moraxella catarrhalis, W0506, 37° C., 20 hours, read-out: Antimicrobial activity (MIC)
Experimental: as §1, §2

H. influenzae 9334 = test: MIC, agar plate dilution method; type: cell-based; settings: Haemophilus influenzae; H. influenzae 9334; 37° C., 20 hours; read-out: Antimicrobial activity (MIC)
Experimental: as §1, §2

S. aureus M133 = test: MIC, agar plate dilution method; type: cell-based; settings: Staphylococcus aureus, 37° C., 20 hours, read-out: Antimicrobial activity (MIC)
Experimental: as §1, §2

S. aureus 209P JC-1 = test: MIC, agar plate dilution method; type: cell-based; settings: Staphylococcus aureus; S. aureus 209P JC-1; 37° C., 20 hours; read-out: Antimicrobial activity (MIC)
Experimental: as §1, §2

M. luteus ATCC9341 = test: MIC, agar plate dilution method; type: cell-based; settings: Micrococcus luteus; M. luteus ATCC9341; 37° C., 20 hours; read-out: Antimicrobial activity (MIC)
Experimental: as §1, §2

E. coli NIHJ JC-2 = test: MIC, agar plate dilution method; type: cell-based; settings: Escherichia coli, NIHJJC2; E. coli NIHJ JC-2; 37° C., 20 hours; read-out: Antimicrobial activity (MIC)
Experimental: as §1, §2

S. Pneumoniae Type 1 = test: MIC, agar plate dilution method; type: cell-based; settings: Streptococcus pneumoniae; S. Pneumoniae Type 1; 37° C., 20 hours; read-out: Antimicrobial activity (MIC)
Experimental: as §1, §2

S. epidermidis ATCC14990 = test: MIC, agar plate dilution method; type: cell-based; settings: Staphylococcus epidermidis, 37° C., 20 hours, read-out: Antimicrobial activity (MIC)
Experimental: as §1, §2

K. pneumoniae PC1602 = test: MIC, agar plate dilution method; type: cell-based; settings: Klebsiella pneumoniae, 37° C., 20 hours, read-out: Antimicrobial activity (MIC)
Experimental: as §1, §2

S. aureus MS15009/pMS98 = test: MIC, agar plate dilution method; type: cell-based; settings: Staphylococcus aureus, MS15009/PMS98, 20 h, read-out: Antimicrobial activity (MIC)
Experimental: as §1, §2

S. pneumoniae IP692 = test: MIC, agar plate dilution method; type: cell-based; settings: Streptococcus pneumoniae; S. pneumoniae IP692; 37° C., 20 hours; read-out: Antimicrobial activity (MIC)
Experimental: as §1, §2

S. Pyogenes Cook = test: MIC, agar plate dilution method; type: cell-based; settings: Streptococcus pyogenes, 37° C., 20 hours, read-out: Antimicrobial activity (MIC)
Experimental: as §1, §2

E. faecalis W-73 = test: MIC, agar plate dilution method; type: cell-based; settings: Enterococcus faecalis, W73; E. faecalis W-73; 37° C., 20 hours; read-out: Antimicrobial activity (MIC)
Experimental: as §1, §2

S. aureus MS15026 = test: MIC, agar plate dilution method; type: cell-based; settings: Staphylococcus aureus, 37° C., 20 hours, read-out: Antimicrobial activity (MIC)
Experimental: as §1, §2

S. aureus M126 = test: MIC, agar plate dilution method; type: cell-based; settings: Staphylococcus aureus; S. aureus M126; 37° C., 20 hours; read-out: Antimicrobial activity (MIC)
Experimental: as §1, §2

S. aureus MS15009/pMS99 = test: MIC, agar plate dilution method; type: cell-based; settings: Staphylococcus aureus, MS15009/PMS99, 20 h, read-out: Antimicrobial activity (MIC)
Experimental: as §1, §2

B. catarrhalis W-0500 = test: MIC, agar plate dilution method; type: cell-based; settings: Moraxella catarrhalis, W0500, 37° C., 20 hours, read-out: Antimicrobial activity (MIC)
Experimental: as §1, §2

S. aureus MS15027 = test: MIC, agar plate dilution method; type: cell-based; settings: Staphylococcus aureus, 37° C., 20 hours, read-out: Antimicrobial activity (MIC)
Experimental: as §1, §2

[1] = concentration in serum after oral administration to mice, bioassay; type: in vivo, mice (Jcl:ICR)
Experimental: The compound (3) was mixed with a 0.2% solution of carboxymethylcellulose to give a concentration of 4 mg/ml and a 1 ml portion of the resulting emulsion was orally administered to 4-week-old male Jcl:ICR mice. Blood was collected from armpit of the mice 30, 60, 120, 240 and 360 minutes after the administration of the test compound (n=2). The collected blood was allowed to stand at room temperature for about 2 hours and centrifuged for 20 minutes with a centrifuge (KUBOTA KS-5000P) to obtain serum. To the serum was added an equivalent volume of 50% CH3 CN-50 mM phosphate (1:1 by volume) buffer (pH 7.0). The resulting mixture served as a serum sample. The concentration of the test compound in the serum sample was measured by the following bioassay method.
One hundred […] of the serum sample was poured into a hole made on a test plate containing 40 ml of MRAPJ medium (6 g/l peptone, 3 g/l yeast extract, 1.5 g/l meat extract, 1 g/l glucose and 15 g/l agar, pH 6.5) supplemented with a solution of M. Iuteus ATCC9341 (1%) and incubated at 32° C. for 18 hours and MIC was measured based on the calibration curve. MOM, MDM and RKM were also tested for comparison. […] Thus a long-pending problem of "low concentration in serum" of 16-membered macrolide antibiotics has been solved. […] Thus this compound is considered as a macrolide derivative showing new pharmacokinetics.
Further, a pharmacokinetics test on the compound (12) of the present invention is carried out in the same manner as described above. Namely, 200 mg/kg of the compound (12) is orally administered to mice and the concentration of this compound in the serum is determined by a bioassay method with the use of M. luteus as a test strain. […] The disadvantage of 16-membered ring macrolide antibiotics, which has been pointed out for a long time, has been thus overcome.

| Compound | antimicrobial activity in vitro compared with MOM (test strains) | antimicrobial activity compared with LM-A7 (test strains) | antimicrobial activity on Gram-positive bacteria (Gram-positive bacteria) | MIC (H. influenzae Type b) [µg/mL] | MIC (B. catarrhalis W-0506) [µg/mL] | MIC (H. influenzae 9334) [µg/mL] | MIC (S. aureus M133) [µg/mL] | MIC (S. aureus 209P JC-1) [µg/mL] | MIC (M. luteus ATCC9341) [µg/mL] | MIC (E. coli NIHJ JC-2) [µg/mL] | MIC (S. Pneumoniae Type 1) [µg/mL] | MIC (S. epidermidis ATCC14990) [µg/mL] | MIC (K. pneumoniae PC1602) [µg/mL] | MIC (S. aureus MS15009/pMS98) [µg/mL] | MIC (S. pneumoniae IP692) [µg/mL] | MIC (S. Pyogenes Cook) [µg/mL] | MIC (E. faecalis W-73) [µg/mL] | MIC (S. aureus MS15026) [µg/mL] | MIC (S. aureus M126) [µg/mL] | MIC (S. aureus MS15009/pMS99) [µg/mL] | further results |
| --- | --- | --- | --- | --- | --- | --- | --- | --- | --- | --- | --- | --- | --- | --- | --- | --- | --- | --- | --- | --- | --- |
| CCCCO[C@H]1[C@H](C)O[C@@H](O[C@H]2[C@H](N(C)C)[C@@H](O)[C@H](O[C@H]3[C@@H](CC=O)C[C@@H](C)[C@@H](O)/C=C/C=C/C[C@@H](C)OC(=O)C[C@@H](O)[C@@H]3OC)O[C@@H]2C)C[C@@]1(C)OC [(10)] | clearly much superior to MOM | comparable or superior | strong antimicrobial activity | 12.5 (≈ 16.2 µM) | 1.56 (≈ 2.02 µM) | 3.13 (≈ 4.05 µM) | 0.39 (≈ 0.505 µM) | 0.1 (≈ 0.13 µM) | 0.05 (≈ 0.0648 µM) | > 100 | 0.2 (≈ 0.259 µM) | 0.39 (≈ 0.505 µM) | > 100 | 0.39 (≈ 0.505 µM) | 0.1 (≈ 0.13 µM) | 0.1 (≈ 0.13 µM) | 0.78 (≈ 1.01 µM) | > 100 | > 100 | > 100 | MIC (B. catarrhalis W-0500): 0.78 µg/mL (≈ 1.01 µM); MIC (S. aureus MS15027): 0.39 µg/mL (≈ 0.505 µM) |
| CCCCCO[C@H]1[C@H](C)O[C@@H](O[C@H]2[C@H](N(C)C)[C@@H](O)[C@H](O[C@H]3[C@@H](CC=O)C[C@@H](C)[C@@H](O)/C=C/C=C/C[C@@H](C)OC(=O)C[C@@H](O)[C@@H]3OC)O[C@@H]2C)C[C@@]1(C)OC [(11)] | clearly much superior to MOM | comparable or superior | strong antimicrobial activity | 12.5 (≈ 15.9 µM) | 0.78 (≈ 0.992 µM) | 3.13 (≈ 3.98 µM) | 0.39 (≈ 0.496 µM) | 0.1 (≈ 0.127 µM) | 0.05 (≈ 0.0636 µM) | > 100 | 0.2 (≈ 0.254 µM) | 0.39 (≈ 0.496 µM) | > 100 | 0.39 (≈ 0.496 µM) | 0.05 (≈ 0.0636 µM) | 0.1 (≈ 0.127 µM) | 0.39 (≈ 0.496 µM) | > 100 | > 100 | > 100 | MIC (B. catarrhalis W-0500): 0.39 µg/mL (≈ 0.496 µM); MIC (S. aureus MS15027): 0.39 µg/mL (≈ 0.496 µM) |
| CO[C@@H]1[C@@H](O[C@@H]2O[C@H](C)[C@@H](O[C@H]3C[C@@](C)(OC)[C@@H](OCCC(C)C)[C@H](C)O3)[C@H](N(C)C)[C@H]2O)[C@@H](CC=O)C[C@@H](C)[C@@H](O)/C=C/C=C/C[C@@H](C)OC(=O)C[C@H]1O [(12)] | clearly much superior to MOM | comparable or superior | strong antimicrobial activity | 6.25 (≈ 7.95 µM) | 0.39 (≈ 0.496 µM) | 1.56 (≈ 1.98 µM) | 0.39 (≈ 0.496 µM) | 0.1 (≈ 0.127 µM) | 0.05 (≈ 0.0636 µM) | > 100 | 0.1 (≈ 0.127 µM) | 0.39 (≈ 0.496 µM) | > 100 | 0.2 (≈ 0.254 µM) | 0.1 (≈ 0.127 µM) | 0.05 (≈ 0.0636 µM) | 0.39 (≈ 0.496 µM) | > 100 | > 100 | > 100 | Cmax ([1]; mouse, serum, 200 mg/kg, M. luteus bioassay, read-out: maximum concentration in the serum): 11500 ng/mL; maximum concentration in the serum, comparison in words ([1]; versus clarythromycin (CAM) or other 16-membered macrolides): comparable to that of CAM; MIC (B. catarrhalis W-0500): 0.39 µg/mL (≈ 0.496 µM); MIC (S. aureus MS15027): 0.39 µg/mL (≈ 0.496 µM) |
| CO[C@@H]1[C@@H](O[C@@H]2O[C@H](C)[C@@H](O[C@H]3C[C@@](C)(OC)[C@@H](OCc4ccccc4)[C@H](C)O3)[C@H](N(C)C)[C@H]2O)[C@@H](CC=O)C[C@@H](C)[C@@H](O)/C=C/C=C/C[C@@H](C)OC(=O)C[C@H]1O [(16)] | clearly much superior to MOM | comparable or superior | strong antimicrobial activity | 6.25 (≈ 7.75 µM) | 0.78 (≈ 0.968 µM) | 3.13 (≈ 3.88 µM) | 0.39 (≈ 0.484 µM) | 0.1 (≈ 0.124 µM) | 0.05 (≈ 0.062 µM) | > 100 | 0.1 (≈ 0.124 µM) | 0.2 (≈ 0.248 µM) | > 100 | 0.2 (≈ 0.248 µM) | 0.1 (≈ 0.124 µM) | 0.1 (≈ 0.124 µM) | 0.39 (≈ 0.484 µM) | > 100 | > 100 | > 100 | MIC (B. catarrhalis W-0500): 0.78 µg/mL (≈ 0.968 µM); MIC (S. aureus MS15027): 0.2 µg/mL (≈ 0.248 µM) |
